Source: PMC8878721, “Screening of TNFR1 Binding Peptides from Deinagkistrodon acutus Venom through Phage Display” (Toxins, 2022)

What was measured:
[1] = Dissolution test of DAvp-1; assay type: physicochemical
Protocol: DAvp-1, which appeared in the white lyophilized powder, was synthesized following the solid phase peptide synthesis (SPPS) Fmoc protocol, and Mass Spectrometer (MS) and HPLC were used for quantitative and qualitative verification. A purity of 95.346% was determined with the HPLC methodology (Figure 3A). The mass-to-charge ratios of [M+8H]^8+, [M+7H]^7+, [M+6H]^6+, and [M+5H]^5+ were 594.5, 679.3, 792.3, and 950.5, respectively, and the highest peak of [M+5H]^5+ was selected to calculate the molecular weight (MW). The formula is (1) MW=m/z×C−C(1) where MW is the molecular weight, m/z is the mass-to-charge ratio, and C is the charge.
Homologous modeling has been developed for predicting the 3D structure of proteins and peptides originating from various organisms, and this most accurate modeling method was widely used in structural biology. Software simulations were applied to test if there was a positive interaction with TNFR1 [37]. […] A promising solubility is conducive to the development of drugs.

[2] = system: pro-inflammatory cytokines; conditions: snake venom extracts; ref [2],[3],[4]; cited from earlier work
Text: Snake venoms have been used as traditional Chinese medicines for hundreds of years, and they have a positive effect on autoimmune inflammatory diseases such as rheumatoid arthritis. However, their active, effective ingredients and their mechanisms of action are not fully understood yet. Studies have shown that snake venom is a mixture of proteins and peptides with various biological activities, including anti-tumor, anti-inflammatory, anti-stroke, and analgesic activities. For example, snake venom extracts such as Cathelicidin-BF and Cathelicidin-CATH can inhibit pro-inflammatory cytokin ...

Compound: CSCC[C@H](NC(=O)[C@H](CCCNC(=N)N)NC(=O)CNC(=O)[C@H](CCCNC(=N)N)NC(=O)[C@H](CC(C)C)NC(=O)[C@@H](NC(=O)[C@H](CC(C)C)NC(=O)[C@H](CO)NC(=O)[C@@H](N)CC(N)=O)C(C)C)C(=O)N[C@@H](CCCNC(=N)N)C(=O)N[C@@H](CC(=O)O)C(=O)N[C@H](C(=O)N[C@@H](CCCCN)C(=O)N[C@H](C(=O)N[C@@H](CCCNC(=N)N)C(=O)N[C@@H](CC(=O)O)C(=O)N[C@@H](CC(=O)O)C(=O)NCC(=O)N[C@@H](CCCNC(=N)N)C(=O)N[C@@H](CCCCN)C(=O)N[C@@H](CO)C(=O)N1CCC[C@H]1C(=O)N[C@@H](CO)C(=O)N[C@@H](Cc1c[nH]cn1)C(=O)N[C@@H](Cc1c[nH]cn1)C(=O)N[C@@H](CO)C(=O)N[C@@H](CCCCN)C(=O)N[C@@H](Cc1ccccc1)C(=O)N[C@@H](CO)C(=O)NCC(=O)NCC(=O)N[C@H](C(=O)N[C@@H](CCCNC(=N)N)C(=O)N[C@@H](CC(N)=O)C(=O)N[C@@H](Cc1c[nH]c2ccccc12)C(=O)N[C@@H](CCC(N)=O)C(=O)N[C@@H](CCCCN)C(=O)N[C@@H](CC(C)C)C(=O)N[C@H](C(=O)N[C@@H](CCCCN)C(=O)N[C@@H](CC(C)C)C(=O)O)C(C)C)[C@@H](C)O)C(C)C)C(C)C [DAvp-1]
- solubility in PBS ([1]; 1 × phosphate buffer saline (PBS) (pH 7.1), lyophilized powder, qualitative): could be dissolved
- solubility in DMSO ([1]; dimethyl sulfoxide (DMSO), lyophilized powder, qualitative): could be dissolved
- solubility (overall) ([1]; dissolution test, in words): good solubility
- solubility in ultrapure water ([1]; ultrapure water, lyophilized powder, qualitative): could be dissolved

Compound: Cathelicidin-BF
- effect on pro-inflammatory cytokines [2]: can inhibit pro-inflammatory cytokines
